Experimental data published in article PMC7854729 (Nature Communications, 2021).
“And” between values parts separate entries of the source, which are not always exact repeats. Identical values can stand only once. Like-named read-outs stand apart in the source and are kept apart here. Where a SMILES comes first, the peptide text is derived from it.

Key:
[1] = biological target: SARS-CoV-2 PLpro (Severe acute respiratory syndrome coronavirus 2, UniProt P0DTD1); assay: biochemical
[2] = test system: SARS-CoV-2; assay: microbe, parasite or virus in culture; assay type: cell-based, SARS-CoV-2 (nCoV/Washington/1/2020) in Vero E6 cells; settings: for inhibition of virus replication: Vero E6, SARS-CoV-2; for Percent Spike Positive Cells: relative to DMSO treated cells, single replicates
[3] = biological target: T1, PLpro-WT (Severe acute respiratory syndrome coronavirus 2, UniProt P0DTD1); assay type: biochemical
T1 construct: PLpro is a domain of Nsp3—a large multidomain protein; made in house; host or cells: E. coli BL21(DE3)-Gold

## Cc1ccc(NC(=O)NC(N)=O)cc1C(=O)N[C@H](C)c1cccc2ccccc12 [Compound 2, 5-carbamylurea-2-methyl-N-[(1R)-1-naphthalen-1-ylethyl]benzamide]
[1]; Log(M) -3.69897, listed as 2 (Snyder495)
  PLpro assay signal (source data Figure 2, single replicates): 60 and 59 and 86
[1]; Log(M) -4, listed as 2 (Snyder495)
  PLpro assay signal (source data Figure 2, single replicates): 70 and 66 and 64
[1]; Log(M) -4.39794, listed as 2 (Snyder495)
  PLpro assay signal (source data Figure 2, single replicates): 92 and 85 and 99
[1]; Log(M) -4.69897, listed as 2 (Snyder495)
  PLpro assay signal (source data Figure 2, single replicates): 136 and 126 and 144
[1]; Log(M) -5.09691, listed as 2 (Snyder495)
  PLpro assay signal (source data Figure 2, single replicates): 203 and 179 and 181
[1]; Log(M) -5.39794, listed as 2 (Snyder495)
  PLpro assay signal (source data Figure 2, single replicates): 314 and 305 and 289
[1]; Log(M) -5.79588, listed as 2 (Snyder495)
  PLpro assay signal (source data Figure 2, single replicates): 365 and 343 and 315
[1]; Log(M) -6.09691, listed as 2 (Snyder495)
  PLpro assay signal (source data Figure 2, single replicates): 476 and 447 and 368
[1]; Log(M) -6.49485, listed as 2 (Snyder495)
  PLpro assay signal (source data Figure 2, single replicates): 414 and 419 and 416
[1]; Log(M) -6.79588, listed as 2 (Snyder495)
  PLpro assay signal (source data Figure 2, single replicates): 421 and 453 and 465
[1]; pH 7.3, read-out: IC50
  IC50: 5.1 µM
[2]
  inhibition of virus replication: failed

## C=CC(=O)Nc1ccc(C)c(C(=O)N[C@H](C)c2cccc3ccccc23)c1 [Compound 3, 5-acrylamide-2-methyl-N-[(1R)-1-naphthalen-1-ylethyl]benzamide]
[1]; Log(M) -3.69897, listed as 3 (Snyder530)
  PLpro assay signal (source data Figure 2, single replicates): 91 and 88 and 87
[1]; Log(M) -4, listed as 3 (Snyder530)
  PLpro assay signal (source data Figure 2, single replicates): 107 (2×) and 106
[1]; Log(M) -4.39794, listed as 3 (Snyder530)
  PLpro assay signal (source data Figure 2, single replicates): 175 (2×) and 163
[1]; Log(M) -4.69897, listed as 3 (Snyder530)
  PLpro assay signal (source data Figure 2, single replicates): 282 and 274 and 281
[1]; Log(M) -5.09691, listed as 3 (Snyder530)
  PLpro assay signal (source data Figure 2, single replicates): 401 and 387 and 371
[1]; Log(M) -5.39794, listed as 3 (Snyder530)
  PLpro assay signal (source data Figure 2, single replicates): 551 and 511 and 480
[1]; Log(M) -5.79588, listed as 3 (Snyder530)
  PLpro assay signal (source data Figure 2, single replicates): 638 and 706 and 719
[1]; Log(M) -6.09691, listed as 3 (Snyder530)
  PLpro assay signal (source data Figure 2, single replicates): 726 and 781 and 797
[1]; Log(M) -6.49485, listed as 3 (Snyder530)
  PLpro assay signal (source data Figure 2, single replicates): 808 and 740 and 787
[1]; Log(M) -6.79588, listed as 3 (Snyder530)
  PLpro assay signal (source data Figure 2, single replicates): 765 and 796 and 803
[1]; pH 7.3, read-out: IC50
  IC50: 6.4 µM
[2]
  inhibition of virus replication: failed

## Nc1cc(C(=O)Nc2cccc3ccccc23)cc(C(F)(F)F)c1 [Compound 4]
[1]; IC50
  IC50: 43.2 ± 9.4 µM
[1]; Log(M) -0.30103, listed as 4 (Snyder550)
  PLpro assay signal (source data Figure 2, single replicates): 498 and 310 and 468
[1]; Log(M) -0.60206, listed as 4 (Snyder550)
  PLpro assay signal (source data Figure 2, single replicates): 426 and 463 and 490
[1]; Log(M) -1, listed as 4 (Snyder550)
  PLpro assay signal (source data Figure 2, single replicates): 617 and 632 and 562
[1]; Log(M) -1.30103, listed as 4 (Snyder550)
  PLpro assay signal (source data Figure 2, single replicates): 679 and 720 and 747
[1]; Log(M) -1.69897, listed as 4 (Snyder550)
  PLpro assay signal (source data Figure 2, single replicates): 956 and 920 and 944
[1]; Log(M) -2, listed as 4 (Snyder550)
  PLpro assay signal (source data Figure 2, single replicates): 1073 and 1048 and 930
[1]; Log(M) -2.39794, listed as 4 (Snyder550)
  PLpro assay signal (source data Figure 2, single replicates): 1192 and 1138 and 1087
[1]; Log(M) -2.69897, listed as 4 (Snyder550)
  PLpro assay signal (source data Figure 2, single replicates): 1318 and 1220 and 924
[1]; Log(M) -3.09691, listed as 4 (Snyder550)
  PLpro assay signal (source data Figure 2, single replicates): 1177 and 1051 and 1092
[1]; Log(M) -3.39794, listed as 4 (Snyder550)
  PLpro assay signal (source data Figure 2, single replicates): 1045 and 1012 and 1221
[2]; Severe acute respiratory syndrome coronavirus 2, Vero C1008, 24 h, read-out: EC50
  EC50: 1.7 ± 4.4 µM
[2]
  inhibition of virus replication: inhibiting virus replication
[2]; [Drug] 0.1 uM
  Percent Spike Positive Cells: 75% and 100% and 88%
[2]; [Drug] 1 uM
  Percent Spike Positive Cells: 88% and 81% and 63%
[2]; [Drug] 10 uM
  Percent Spike Positive Cells: 0%

## CC(=O)N[C@@H](CC(C)C)C(=O)N[C@@H](CCCCN)C(=O)NCC(=O)NCC(=O)Nc1ccc2c(C)cc(=O)oc2c1 [probe] (HELM PEPTIDE1{[ac].L.K.G.G.[Cc1cc(=O)oc2cc(N[*:1])ccc12]}$$$$V2.0)
[3]; 0.1 M PLP, time point 8
  fluorescence: 103 and 110 and 118
  fluorescence normalised to probe only: 2.146 and 2.292 and 2.458
[3]; 0.1 M PLP, time point 9
  fluorescence: 107 and 115 and 122
  fluorescence normalised to probe only: 2.229 and 2.396 and 2.542
[3]; 0.1 M PLP, time point 10
  fluorescence: 111 and 120 and 127
  fluorescence normalised to probe only: 2.3125 and 2.5 and 2.646
[3]; 0.1 M PLP, time point 11
  fluorescence: 115 and 124 and 132
  fluorescence normalised to probe only: 2.396 and 2.583 and 2.75
[3]; 0.1 M PLP, time point 12
  fluorescence: 115 and 129 and 133
  fluorescence normalised to probe only: 2.396 and 2.6875 and 2.771
[3]; 0.1 M PLP, time point 13
  fluorescence: 120 and 131 and 139
  fluorescence normalised to probe only: 2.5 and 2.729 and 2.896
[3]; 0.1 M PLP, time point 14
  fluorescence: 123
  fluorescence normalised to probe only: 2.5625 and 2.833 and 2.979
[3]; 0.2 M PLP, time point 8
  fluorescence: 260 and 288 and 278
  fluorescence normalised to probe only: 5.417 and 6 and 5.792
[3]; 0.2 M PLP, time point 9
  fluorescence: 295 and 313 and 300
  fluorescence normalised to probe only: 6.146 and 6.521 and 6.25
[3]; 0.2 M PLP, time point 10
  fluorescence: 321 and 335 and 319
  fluorescence normalised to probe only: 6.6875 and 6.979 and 6.646
[3]; 0.2 M PLP, time point 11
  fluorescence: 337 and 357 and 345
  fluorescence normalised to probe only: 7.021 and 7.4375 and 7.1875
[3]; 0.2 M PLP, time point 12
  fluorescence: 357 and 377 and 368
  fluorescence normalised to probe only: 7.4375 and 7.854 and 7.667
[3]; 0.2 M PLP, time point 13
  fluorescence: 379 and 400 and 381
  fluorescence normalised to probe only: 7.896 and 8.333 and 7.9375
[3]; 0.2 M PLP, time point 14
  fluorescence normalised to probe only: 8.167 and 8.792 and 8.417
[3]; 0.3 M PLP, time point 8
  fluorescence: 443 and 452 and 474
  fluorescence normalised to probe only: 9.229 and 9.417 and 9.875
[3]; 0.3 M PLP, time point 9
  fluorescence: 481 and 493 and 520
  fluorescence normalised to probe only: 10.0208 and 10.2708 and 10.8333
[3]; 0.3 M PLP, time point 10
  fluorescence: 519 and 530 and 558
  fluorescence normalised to probe only: 10.8125 and 11.0417 and 11.625
[3]; 0.3 M PLP, time point 11
  fluorescence: 560 and 573 and 600
  fluorescence normalised to probe only: 11.6667 and 11.9375 and 12.5
[3]; 0.3 M PLP, time point 12
  fluorescence: 594 and 609 and 643
  fluorescence normalised to probe only: 12.375 and 12.6875 and 13.3958
[3]; 0.3 M PLP, time point 13
  fluorescence: 632 and 646 and 681
  fluorescence normalised to probe only: 13.1667 and 13.4583 and 14.1875
[3]; 0.3 M PLP, time point 14
  fluorescence: 671 and 682 and 717
  fluorescence normalised to probe only: 13.9792 and 14.2083 and 14.9375
[3]; 0.5 M PLP, time point 8
  fluorescence: 891 and 894 and 883
  fluorescence normalised to probe only: 18.5625 and 18.625 and 18.3958
[3]; 0.5 M PLP, time point 9
  fluorescence: 972 and 978 and 964
  fluorescence normalised to probe only: 20.25 and 20.375 and 20.0833
[3]; 0.5 M PLP, time point 10
  fluorescence: 1053 and 1058 and 1040
  fluorescence normalised to probe only: 21.9375 and 22.0417 and 21.6667
[3]; 0.5 M PLP, time point 11
  fluorescence: 1137 and 1139 and 1118
  fluorescence normalised to probe only: 23.6875 and 23.7292 and 23.2917
[3]; 0.5 M PLP, time point 12
  fluorescence: 1204 and 1214 and 1189
  fluorescence normalised to probe only: 25.0833 and 25.2917 and 24.7708
[3]; 0.5 M PLP, time point 13
  fluorescence: 1275 and 1287 and 1260
  fluorescence normalised to probe only: 26.5625 and 26.8125 and 26.25
[3]; 0.5 M PLP, time point 14
  fluorescence: 1338 and 1358 and 1327
  fluorescence normalised to probe only: 27.875
[3]; 1.0 M PLP, time point 8
  fluorescence: 1812 and 1755 and 1796
  fluorescence normalised to probe only: 37.75 and 36.5625 and 37.4167
[3]; 1.0 M PLP, time point 9
  fluorescence: 1958 and 1902 and 1937
  fluorescence normalised to probe only: 40.7917 and 39.625 and 40.3542
[3]; 1.0 M PLP, time point 10
  fluorescence: 2101 and 2025 and 2064
  fluorescence normalised to probe only: 43.7708 and 42.1875 and 43
[3]; 1.0 M PLP, time point 11
  fluorescence: 2228 and 2143 and 2197
  fluorescence normalised to probe only: 46.4167 and 44.6458 and 45.7708
[3]; 1.0 M PLP, time point 12
  fluorescence: 2329 and 2259 and 2313
  fluorescence normalised to probe only: 48.5208 and 47.0625 and 48.1875
[3]; 1.0 M PLP, time point 13
  fluorescence: 2450 and 2363 and 2423
  fluorescence normalised to probe only: 51.0417 and 49.2292 and 50.4792
[3]; 1.0 M PLP, time point 14
  fluorescence: 2548 and 2459 and 2512
